Legend:
infantile spasms [1] = test: Clinical trial of a composition comprising cannabidiol in subjects with infantile spasms, overnight video-EEG on day 14; format: in vivo; conditions: human subjects 6 to 36 months who failed hormonal therapy and vigabatrin, CBD titrated to 40 mg/kg/day TID, control receives placebo
Experimental: Human subjects with video-EGG confirmed infantile spasms, between the ages of 6 months and 36 months, who have failed adequate treatments with hormonal therapy (adrenocorticotropic hormone (ACTH) (e.g., 150 IU/m2/day×2 weeks) and/or prednisolone (e.g., 8 mg/kg/day×2 weeks) and vigabatrin (e.g., 150 mg/kg/day×2 weeks)) will receive a composition comprising cannabidiol (“CBD”) according to the treatment schedule of Table 5. The control group receives placebo.
The 40 mg/kg/day treatment is optionally extended for up to one year in the cannabidiol group for subjects who display a response (FIG. 1). The cannabidiol dosage is tapered in the cannabidiol group according to Table 6.

infantile spasms [2] = conditions: high-dose study; intramuscular ACTH therapy; cited from earlier work

For `C=C(C)[C@@H]1CCC(C)=C[C@H]1c1c(O)cc(CCCCC)cc1O` [cannabidiol, (−)-trans-2-p-mentha-1,8-dien-3-yl-5-pentylresorcinol], the “symptoms of infantile spasms on overnight video-EEG, cannabidiol group relative to control group” value (infantile spasms [1]) was “reduced symptoms of infantile spasms”.

In the case of “adrenocorticotropic hormone (SYSMEHFRWGKPVGKKRRPVKVYPNGAEDESAEAFPLEF; Corticotropin; UniProt P01189 138-176, looked up) [ACTH]”, the “patients with cessation of seizures and normal EEG patterns” value (infantile spasms [2]) is listed as 13 of the 15.
